Measurements taken from patent US20040142882A1, “Use of glycyrrhizin and its derivatives as RANTES inducers” (priority 2002, published 2004).

Columns and labels:
[1] = system: peripheral mononuclear cells; assay: RANTES induction in peripheral mononuclear cells from healthy individuals (Quantikine immunoassay of culture supernatant); type: cell-based, human
Description: Peripheral blood was collected from healthy individuals and peripheral mononuclear cells were isolated with Ficoll-Hypaque. RPMI1640 medium containing 10% FCS and antibiotics (penicillin and streptomycin) was used for culturing. After stimulating 1×10^6 cells/ml of peripheral mononuclear cells with 100 μg/ml of sodium olean-3β-hydroxy-11-oxo-12-ene-30-ate, disodium olean-9(11),12-diene-3β,30-diol-3β,30-O-dihemiphthalate, disodium olean-11,13 (18)-diene-3β,30-diol-3β,30-O-dihemiphthalate, disodium olean-3β-hydroxy-11,13(18)-diene-30-ate-3β-O-hemiphthalate, disodium olean-3β-hydroxy-11-oxo-12-ene-30-ate-3β-O-hemiphthalate, or monoammonium glycyrrhizinate for 24 hours, the amount of RANTES in the culture supernatant was measured with a Human RANTES/CCL5 Quantikine Immunoassay Kit (R&D Systems). Furthermore, the control in the drawing indicates the amount of RANTES in culture supernatant when peripheral mononuclear cells were treated with medium only.
Peripheral blood was collected from healthy subjects and peripheral mononuclear cells were isolated with Ficoll-Hypaque. 1×10^6 cells/ml of peripheral mononuclear cells were stimulated with 100 μg/ml of monoammonium glycyrrhizinate (monoammonium glycyrrhizinate will hereinafter be referred to as glycyrrhizin). Taking the time at which glycyrrhizin was added to be 0 hours, the amount of RANTES present in the culture supernatant was measured with the Human RANTES/CCL5 Quantikine Immunoassay Kit (R&D Systems) 12, 24, 48 and 72 hours later. Furthermore, the control in the drawing indicates the amount of RANTES in culture supernatant of peripheral mononuclear cells not treated with glycyrrhizin.
(§1) Peripheral blood was collected from healthy subjects and peripheral mononuclear cells were isolated with Ficoll-Hypaque. 1×10^6 cells/ml of peripheral mononuclear cells were stimulated for 24 hours with 0.1-100 μg/ml of glycyrrhizin. The amount of RANTES present in the culture supernatant was measured with the Human RANTES/CCL5 Quantikine Immunoassay Kit (R&D Systems).

[2] = system: peripheral mononuclear cells from AIDS patients; assay: RANTES induction in peripheral mononuclear cells from AIDS patients; type: cell-based, human; details: 100 μg/ml, 24 hours, cells from 3 AIDS patients, FIG. 4
Description: as §1, with “3 AIDS patients (CD4 count: 215-418 cells/μl, viral load: 80,000-370,000 copies/ml)” for “healthy subjects”, “100” for “0.1-100”, “Systems). Furthermore, the control in the drawing indicates the amount of RANTES in culture supernatant of peripheral mononuclear cells not treated with glycyrrhizin.” for “Systems).”

HIV [3] = details: 150 to 225 mg (6 to 9 tablets) per day, asymptomatic carriers (AC); cited from earlier work
[4] = system: mononuclear cells originated from mouse spleen; assay: RANTES induction in mononuclear cells originated from mouse spleen; type: cell-based
From the text: The above results were able to be confirmed not only in humans, but also in experiments using mononuclear cells originated from mouse spleen.

[5] = system: septicemia induced by cecal ligation and puncture (CLP); assay: Septicemia model (cecal ligation and puncture) in IFN-γ knockout mice, survival; type: in vivo; details: 7 days
Description: Glycyrrhizin was administered intraperitoneally to IFN-γ knockout mice at 20 mg/kg, and septicemia was induced by cecal ligation and puncture (CLP) 2 hours later.
Glycyrrhizin was administered intraperitoneally to IFN-γ knockout mice at 20 mg/kg, and septicemia was induced by CLP 2 hours later. 10 μg/ml of anti-RANTES monoclonal antibody were administered subcutaneously 2 hours before, 12 hours after and 24 hours after administration of glycyrrhizin, while an equal amount of Ig was administered subcutaneously to a control group.

HIV [6] = details: reported in recent years; cited from earlier work
[7] = system: methicillin-resistant Staphylococcus aureus (MRSA); assay: MRSA infection in SCIDbgMN mice inoculated with spleen mononuclear cells of IFN-γ knockout mice, survival; type: in vivo; details: 10 days
Description: Spleen mononuclear cells originated from IFN-γ knockout mice (5×10^6 cells/ml) were inoculated into SCIDbgMN mice (SCID-beige mice deficient in macrophage and neutrophil functions). A 20 mg/kg dose of glycyrrhizin was administered intraperitoneally immediately after inoculation. 2 hours later, the animals were infected through the tail vein with methicillin-resistant Staphylococcus aureus (MRSA) at a level of 5 LD50. Furthermore, a control group was infected with an equal amount of MRSA following administration of physiological saline.
Spleen mononuclear cells originated from IFN-γ knockout mice (5×10^6 cells/ml) were inoculated into SCIDbgMN mice. A 20 mg/kg dose of glycyrrhizin was administered intraperitoneally immediately after inoculation. 2 hours later, the animals were infected through the tail vein with methicillin-resistant Staphylococcus aureus (MRSA) at a level of 5 LD50. 10 μg/ml of anti-RANTES monoclonal antibody was administered subcutaneously 2 hours before, 12 hours after and 24 hours after administration of glycyrrhizin, while an equal amount of Ig was administered subcutaneously to a control group.

IL-12Rβ2 mRNA = assay: Th1 cell induction: IL-12Rβ2 mRNA expression by RT-PCR in peripheral mononuclear cells; type: cell-based, human; details: 7 days, FIG. 5
Description: Peripheral blood was collected from healthy subjects and peripheral mononuclear cells were isolated with Ficoll-Hypaque. 1×10^6 cells/ml of peripheral mononuclear cells were cultured for 7 days in medium containing IL-2 (10 U/ml) and anti-IFN-γ monoclonal antibody (10 μg/ml) in the presence of 100 μg/ml of glycyrrhizin, or glycyrrhizin and anti-RANTES monoclonal antibody (10 μg/ml). After culturing, RNA was extracted from the cells, and the expression of IL-12Rβ2 mRNA, a marker for Th1 cells, was measured by RT-PCR. […] In other words, IFN-γ is not involved in the reaction used in this experiment. Furthermore, the control in the drawing indicates the degree of expression of IL-12Rβ2 mRNA in mononuclear cells when cultured without the addition of glycyrrhizin.

Compound | amount of RANTES induced compared with monoammonium glycyrrhizinate ([1]; 100 μg/ml compound, 24 hours, FIG. 1) | RANTES induction [2] | survival without the onset of AIDS (HIV [3]) [years] | RANTES induction confirmed in mouse cells [4] | mortality rate after septicemic infection with anti-RANTES monoclonal antibody ([5]; 20 mg/kg i.p. plus anti-RANTES monoclonal antibody subcutaneously, FIG. 7) | survival rate after septicemic infection ([5]; 20 mg/kg intraperitoneally 2 hours before CLP, FIG. 6) [%] | amount of RANTES in the culture supernatant ([1]; 100 μg/ml compound, 24 hours, 1×10^6 cells/ml, FIG. 1) [ng/mL] | production of RANTES over time ([1]; 100 μg/ml, 12, 24, 48 and 72 hours, FIG. 2) | RANTES induction versus concentration ([1]; 0.1-100 μg/ml tested, 24 hours, dose dependent within 1-100 μg/ml, FIG. 3) | intracellular growth of HIV (HIV [6]) | mortality rate after MRSA infection with anti-RANTES monoclonal antibody ([7]; 20 mg/kg i.p. plus anti-RANTES monoclonal antibody subcutaneously, FIG. 9) | survival rate after MRSA infection ([7]; 20 mg/kg intraperitoneally 2 hours before MRSA 5 LD50 via tail vein, FIG. 8) [%] | expression of IL-12Rβ2 mRNA (Th1 marker) with anti-RANTES monoclonal antibody (IL-12Rβ2 mRNA; 100 μg/ml glycyrrhizin plus anti-RANTES monoclonal antibody 10 μg/ml) | expression of IL-12Rβ2 mRNA (Th1 marker) (IL-12Rβ2 mRNA; 100 μg/ml, with IL-2 and anti-IFN-γ monoclonal antibody)
CC1(COC(=O)c2ccccc2C(=O)[O-])CCC2(C)CCC3(C)C(=C2C1)C=CC1C2(C)CCC(OC(=O)c4ccccc4C(=O)[O-])C(C)(C)C2CCC13C.[Na+].[Na+] (stereo not drawn) [MUN-014, disodium olean-11,13(18)-diene-3β,30-diol-3β,30-O-dihemiphthalate] | nearly equal amount |  |  |  |  |  |  |  |  |  |  |  |  | 
CC1(C)[C@@H](O[C@H]2O[C@H](C(=O)O)[C@@H](O)[C@H](O)[C@H]2O[C@@H]2O[C@H](C(=O)O)[C@@H](O)[C@H](O)[C@H]2O)CC[C@]2(C)[C@H]3C(=O)C=C4[C@@H]5C[C@@](C)(C(=O)O)CC[C@]5(C)CC[C@@]4(C)[C@]3(C)CC[C@@H]12.N [GR, monoammonium glycyrrhizinate] |  | RANTES was induced | ≥ 10 | confirmed | increased to the same level as the control group | 80 | 3 | increased with the passage of culturing time | dose dependent manner | inhibits the intracellular growth of HIV | increased to the same level as the control group | 75 | no longer demonstrated its expression | increase in the expression of IL-12Rβ2 mRNA
